Assay results as given in EPA's aquatic toxicity sets.

Assays:
Daphnia magna = test: 48 h LC50 (-log10 mol/L); higher = more toxic
Tetrahymena pyriformis = test: 48 h IGC50 (-log10 mol/L); higher = more toxic
Pimephales promelas = test: 96 h LC50 (-log10 mol/L); higher = more toxic

| Structure (SMILES) | 48 h LC50 (-log10 mol/L) (Daphnia magna) | 48 h IGC50 (-log10 mol/L) (Tetrahymena pyriformis) | 96 h LC50 (-log10 mol/L) (Pimephales promelas) |
| --- | --- | --- | --- |
| CCOC(=O)CC | 2.83 | 2.06 | – |
| ClC=C(Cl)Cl | 3.48 | – | 3.47 |
| S=C=NCCc1ccccc1 | 6.1 | 5.54 | – |
| CC(C)[C@H](C(=O)O[C@H](C#N)c1cccc(Oc2ccccc2)c1)c1ccc(Cl)cc1 | 8.58 | – | 9.26 |
| Clc1ccccc1-c1ccccc1 | 5.42 | – | 4.67 |
| CCNCC | 3.12 | – | 1.93 |
| O=C(N=C=S)c1ccccc1 | 4.93 | 3.1 | – |
| Cc1c(Cl)cccc1[N+](=O)[O-] | 4.61 | 3.68 | – |
| OCCO | 0.122 | – | 0.037 |
| CC(Cl)(Cl)Cl | 3.72 | – | 3.4 |
| CNC(=O)O/N=C/C(C)(C)SC | 5.55 | – | 5.17 |
| CCOP(=S)(OCC)SCSCC | 7.13 | – | 6.02 |
| COP(=S)(OC)Oc1ccc([N+](=O)[O-])c(C)c1 | 7.67 | – | 4.81 |
| CCNC(N)=S | 3.94 | 1.87 | – |
| CCCCOC(=O)c1ccccc1C(=O)OCc1ccccc1 | 5.19 | – | 5.22 |
| ClCC(Cl)CCl | 3.65 | – | 3.41 |
| Oc1c(Cl)c(Cl)cc(Cl)c1Cl | 5.61 | 5.22 | – |
| CCNc1nc(Cl)nc(NC(C)C)n1 | 3.6 | – | 4.16 |
| S=C=Nc1ccc(N=C=S)cc1 | 6.4 | 6.35 | – |
| CCCCNC(N)=S | 3.85 | 2.81 | – |
| CCCCN=C=S | 5.43 | 4.72 | – |
| Nc1cc(Cl)ccc1Cl | 4.74 | 3.58 | – |
| O=P(O)(O)CCCl | 3.04 | – | 3.05 |
| CC1=CC(=O)CC(C)(C)C1 | 3.06 | – | 2.74 |
| CN(C)c1ccccc1 | 4.38 | 3.28 | – |

| Structure (SMILES) | 48 h LC50 (-log10 mol/L) (Daphnia magna) | 48 h IGC50 (-log10 mol/L) (Tetrahymena pyriformis) | 96 h LC50 (-log10 mol/L) (Pimephales promelas) |
| --- | --- | --- | --- |
| COP(=S)(OC)Oc1ccc(SC)c(C)c1 | 6.79 | – | 4.94 |
| ClC(Cl)(Cl)C(Cl)(Cl)Cl | 4.93 | – | 5.24 |
| Clc1ccc(C(c2ccc(Cl)cc2)C(Cl)(Cl)Cl)cc1 | 8.27 | – | 7.27 |
| CCOC(C)=O | 2.09 | 1.7 | – |
| c1cc2c3c(cccc3c1)CC2 | 3.58 | – | 4.98 |
| ClC(Cl)=C(Cl)Cl | 4 | – | 3.96 |
| C1CO1 | 2.33 | – | 2.72 |
| Oc1ccc(-c2ccccc2)cc1 | 4.67 | 4.39 | – |
| Cc1ccc2ccccc2c1 | 4.98 | 4.08 | – |
| NC(N)=S | 3.88 | 1.68 | – |
| Cc1ccc(C)cc1 | 3.52 | 3.25 | – |
| Nc1ccc(Cl)cc1Cl | 5.43 | 3.56 | – |
| CCOC(=O)CC(SP(=S)(OC)OC)C(=O)OCC (stereo not given) | 8.35 | – | 4.42 |
| CCOP(=S)(OCC)Oc1cc(C)nc(C(C)C)n1 | 8.56 | – | 4.81 |
| COP(=S)(OC)Oc1ccc([N+](=O)[O-])cc1 | 7.34 | – | 4.51 |
| COP(=O)(OC)C(O)C(Cl)(Cl)Cl (stereo not given) | 7.7 | – | 3.37 |
| O=C(Nc1ccc(Cl)cc1)Nc1ccc(Cl)c(Cl)c1 | 7.48 | – | 6.54 |
| CC(C)(c1ccc(O)cc1)c1ccc(O)cc1 | 4.3 | – | 4.69 |
| CC1(C)C(C=C(Cl)Cl)C1C(=O)OC(C#N)c1ccc(F)c(Oc2ccccc2)c1 (stereo not given) | 9.13 | – | 8.6 |
| c1ccc2[nH]ccc2c1 | 5.07 | 3.21 | – |
| C1=CC2C3C=CC(C3)C2C1 (stereo not given) | 4.1 | – | 3.41 |
| O=[N+]([O-])OCC(CO[N+](=O)[O-])O[N+](=O)[O-] | 3.85 | – | 4.92 |
| CC(=O)CC(C)=O | 3.32 | – | 2.85 |
| CCCCc1ccccc1 | 5.55 | 4.25 | – |
| Oc1c(Cl)cc(Cl)c(Cl)c1Cl | 6.11 | – | 5.35 |
